Results as given in patent US9801374B2, “Active compound combinations comprising carboxamide derivatives” (BAYER CROPSCIENCE AG, priority 2012, dated 2017).

How the values were obtained:
[1] = tested on: Blumeria graminis f.sp. hordei; assay: Blumeria test (barley) / preventive; type: in vivo, Blumeria graminis f.sp. hordei on barley; details: evaluated 7 days after inoculation
Procedure: (§1) • Solvent: 49 parts by weight of N,N-dimethylacetamide • Emulsifier: 1 part by weight of alkylaryl polyglycol ether
(§2) To produce a suitable preparation of active compound, 1 part by weight of active compound or active compound combination is mixed with the stated amounts of solvent and emulsifier, and the concentrate is diluted with water to the desired concentration.
(§3) To test for preventive activity, young plants are sprayed with the preparation of active compound or active compound combination at the stated rate of application.
After the spray coating has been dried, the plants are dusted with spores of Blumeria graminis f.sp. hordei.
The plants are placed in the greenhouse at a temperature of approximately 18° C. and a relative atmospheric humidity of approximately 80% to promote the development of mildew pustules.
The test is evaluated 7 days after the inoculation. 0% means an efficacy which corresponds to that of the untreated control, while an efficacy of 100% means that no disease is observed.

[2] = tested on: Leptosphaeria nodorum; assay: Leptosphaeria nodorum test (wheat) / preventive; type: in vivo, Leptosphaeria nodorum on wheat; details: evaluated 8 days after inoculation
Procedure: as §1, §2, §3
After the spray coating has been dried, the plants are sprayed with a spore suspension of Leptosphaeria nodorum. The plants remain for 48 hours in an incubation cabinet at approximately 20° C. and a relative atmospheric humidity of approximately 100%.
The plants are placed in the greenhouse at a temperature of approximately 22° C. and a relative atmospheric humidity of approximately 80%.
The test is evaluated 8 days after the inoculation. 0% means an efficacy which corresponds to that of the untreated control, while an efficacy of 100% means that no disease is observed.

Structure (SMILES)	Efficacy in % found ([1]; 5 ppm a.i.) [%]	Efficacy in % found ([2]; 25 ppm a.i.) [%]	other results
CP(=O)(O)CCC(N)C(=O)O (stereo not shown) [(B-13.3), glufosinate-ammonium]	0		
O=C(O)CNCP(=O)(O)O [(B-14.1), glyphosate]	11		
CCOC(=O)C1=NOC(c2ccccc2)(c2ccccc2)C1 [(D-19), isoxadifen-ethylen]		17	
CCOC(=O)C1=NN(c2ccc(Cl)cc2Cl)C(C)(C(=O)OCC)C1 [(D-23), mefenpyr-diethyl]		17	
COc1ccccc1C(=O)NS(=O)(=O)c1ccc(C(=O)NC2CC2)cc1 [(D-62), N-{[4-(cyclopropylcarbamoyl)phenyl]-sulfonyl}-2-methoxybenzamide]		0	
CC(C)c1ccc(Cl)cc1CN(C(=O)c1c(C(F)F)nn(C)c1F)C1CC1 [compound A5, N-(5-chloro-2-isopropylbenzyl)-N-cyclopropyl-3-(difluoromethyl)-5-fluoro-1-methyl-1H-pyrazole-4-carboxamide]			Efficacy in % found ([2]; 31 ppm a.i.): 50%; Efficacy in % found ([1]; 62.5 ppm a.i.): 56%
